Where “and” joins values, the source holds several entries; their conditions need not be identical. Equal entries are not always repeated.
Legend:
GABAARs [1] = test: Whole-cell patch-clamp, DGCs in hippocampal slices 48 hr after in vivo treatment; format: cell-based, rat; conditions: 48 hr withdrawal
Protocol: Transverse slices (400 μm) of dorsal hippocampus were obtained with a Vibratome (VT 100, Technical Products International, St. Louis, Mo.) and standard techniques known in the art. Slices were continuously perfused with artificial cerebrospinal fluid (ACSF). See Liang, J., et al. (2007) J Neurosci 27:12367-12377.
Whole-cell patch-clamp recordings were obtained at 34±0.5° C. from cells located in the DG layer at a holding potential of −70 mV, during perfusion with artificial cerebrospinal fluid (ACSF, 125 mM NaCl, 2.5 mM KCl, 2 mM CaCl2, 2 mM MgCl2, 26 mM NaHCO3, and 10 mM D-glucose). The ACSF was continuously bubbled with 95% O2-5% CO2 to ensure adequate oxygenation of slices and a pH of 7.4. Patch electrodes were pulled from thin-wall borosilicate glass pipettes with resistances of 7.5-9 MΩ and were filled with pipette solution (i.e. 137 mM CsCl, 2 mM MgCl2, 1 mM CaCl2, 11 mM EGTA, 10 mM HEPES and 3 mM ATP, pH adjusted to 7.30 with CsOH). Signals were recorded in voltage-clamp mode with a […] amplifier (Molecular Devices, Sunnyvale, Calif.). Whole cell access resistances were in the range of <25 MΩ before electrical compensation by about 70%. During voltage-clamp recordings, access resistance was monitored by measuring the size of the capacitative transient in response to a 5 mV step command and the data were abandoned if changes >20% were encountered. At least 10 min was allowed for equilibration of the pipette solution with the intracellular milieu before commencing mIPSC recordings. Intracellular signal was low-pass filtered at 3 kHz and data were acquired with Digidata 1440A and software CLAMPEX 10 (Molecular Devices) at a sampling frequency of 20 kHz.
Pharmacologically-isolated GABAAR-mediated mIPSCs were recorded as previously described (Liang (2007) and Shen (2011)). […] Data were analyzed using the Clampfit (Version 9.0, Molecular Devices) and the MiniAnalysis Program (versions 6.0.7, Synaptosoft, Decatur, Ga.).
(§1) The MiniAnalysis program (Synaptosoft, Decatur, Ga.) was used to analyze mIPSCs. Itonic is the averaged baseline currents of a given recording period. Itonic amplitude was calculated as the difference between the holding currents measured before and after picrotoxin (100 μM) or bicuculline (10 μM). See Wei, W., et al. (2004) J Neurosci 24, 8379-8382; Liang (2007); and Shen (2011). Briefly, the recordings were low-pass filtered off-line (Clampfit software) at 2 kHz. The mIPSCs were detected (Mini Analysis Program, version 6.0.7) with threshold criteria of 8 pA amplitude and 20 pA*ms charge transfer. The frequency of mIPSCs was determined from all automatically detected events in a given 100 s recording period. For kinetic analysis, only single event mIPSCs with a stable baseline, sharp rising phase (10 to 90% rise time), and exponential decay were chosen during visual inspection of the recording trace. Double and multiple peak mIPSCs were excluded. At least 100 individual mIPSC events were recorded under each experimental condition. The mIPSC kinetics was obtained from analysis of the averaged chosen single events aligned with half rise time in each cell. Decay time constants were obtained by fitting a double exponential to the falling phase of the averaged mIPSCs. Itonic magnitudes were obtained from the averaged baseline current of a given recording period. Itonic amplitude was calculated as the difference between the holding currents measured before and after the application of picrotoxin (50 μM) or bicuculline (10 μM). See Liang J et al (2007); Shen (2011); Hamann (2002); and Mangan P S, et al. (2005) Mol Pharmacol 67(3):775-788. The investigator performing the recordings and mIPSC analysis was blind to the treatment (vehicle, EtOH, E+D, or D) that the rats received.
After 48 hr withdrawal, whole-cell GABAAR-mediated currents were recorded on DGCs in hippocampal slices. In the vehicle group, bath application of EtOH (60 mM) enhanced Itonic from 28.8±3.1 to 62.1±3.3 pA (FIG. 13, panels A, G). […]

GABAARs [2] = test system: T1, GABAARs; test: Whole-cell patch-clamp, DGCs in hippocampal slices, acute drug application; format: cell-based, rat
T1 construct: DHM-enhanced mIPSCs; other: control (vehicle) cultured neurons, DIV14; other: cultured neurons with EtOH exposure/withdrawal (60 mM, 30 min, 24 hr); EtOH-potentiated mIPSCs; effect on post-synaptic currents (mIPSCs); other: comparative experiments, rat hippocampal slices
Protocol: Transverse slices (400 μm) of dorsal hippocampus were obtained with a Vibratome (VT 100, Technical Products International, St. Louis, Mo.) and standard techniques known in the art. Slices were continuously perfused with artificial cerebrospinal fluid (ACSF).
Signals were recorded in voltage-clamp mode with a […] amplifier (Molecular Devices, Sunnyvale, Calif.). Whole cell access resistances were in the range of <25 MΩ before electrical compensation by about 70%. During voltage-clamp recordings, access resistance was monitored by measuring the size of the capacitative transient in response to a 5 mV step command and the data were abandoned if changes >20% were encountered. At least 10 min was allowed for equilibration of the pipette solution with the intracellular milieu before commencing mIPSC recordings.
Data were analyzed using the Clampfit (Version 9.0, Molecular Devices) and the MiniAnalysis Program (versions 6.0.7, Synaptosoft, Decatur, Ga.).
as §1, with “See Wei, W., et al. (2004) J Neurosci 24, 8379-8382; Liang (2007); and Shen (2011).” left out, “See Liang J et al (2007); Shen (2011); Hamann (2002); and Mangan P S, et al. (2005) Mol Pharmacol 67(3):775-788.” left out
As performed previously, whole-cell patch-clamp recordings in dentate gyms granule cells (DGCs) from hippocampal slices in vitro were conducted.

SMILES: O=C1c2c(O)cc(O)cc2O[C@H](c2cc(O)c(O)c(O)c2)[C@H]1O [DHM, (2R,3R)-3,5,7-trihydroxy-2-(3,4,5-trihydroxyphenyl)-2,3-dihydrochromen-4-one]
- mIPSC area after acute EtOH (60 mM) (GABAARs [1]; EtOH+DHM group): 0.78±0.02 nC
- mIPSC area before acute EtOH (GABAARs [1]; EtOH+DHM group): 0.70±0.03 nC
- Itonic before acute EtOH (GABAARs [1]; rats treated with EtOH (5 g/kg) + DHM (1 mg/kg)): 30.0±2.8 pA and 27.9±3.0 pA
- Itonic after acute EtOH (60 mM) (GABAARs [1]; rats treated with EtOH + DHM (1 mg/kg)): 60.0±2.2 pA and 61.3±2.3 pA
- mIPSC increase by acute EtOH (60 mM) (GABAARs [1]; rats treated with EtOH + DHM): 18.0±5.9%
- mIPSC total charge transfer (area) (GABAARs [2]; DHM 0.3 μM, DGCs from naïve rats): 615±22 fC
- mIPSC area (GABAARs [2]; DHM 1 μM, DGCs in hippocampal slices): 0.72±0.03 nC
- EtOH-potentiated mIPSCs (GABAARs [2]; EtOH 60 mM + DHM 3 μM): 0.70±0.02 nC
- effect on post-synaptic currents (mIPSCs) (GABAARs [2]; comparative experiments, rat hippocampal slices): potentiates
